{"source": "patent US20100272791A1", "about": "“COMPOSITION HAVING EFFECT ON TREATMENT AND PREVENTION OF DRY EYE SYNDROME” (MD BIOALPHA CO., LTD., priority 2005, published 2010)", "key": {"corneal keratocytes [1]": {"system": "corneal keratocytes", "experiment": "Production of hyaluronic acid in corneal keratocytes (b-HABP plate assay)", "assay_type": "cell-based", "conditions": "uridine 0 μM to 10 μM, 48 hours; effect up to 5 μM, concentration-dependent; FIG. 1", "description": "Corneal keratocytes were stimulated for 48 hours by treatment of the cells with uridine (0 μM to 10 μM). 100 μl of the cell culture was collected, and reacted with 100 μl of biotinylated hyaluronic acid binding protein (b-HABP, 50 ng/mL) at room temperature for 1 hour. On the day prior to experiments, 20 μg/mL of HA and a solution of 20 mM Na2CO3 were added to a 96-well plate which was then stored in a refrigerator for 24 hours, and washed with a standard assay buffer (SAB) three times. 1% BSA was added to the 96-well plate which was then reacted at room temperature for 90 min and washed with SAB three times to thereby prepare an HA-coated plate. The above-prepared cell culture was added to the HA-coated plate, and reacted with stirring at room temperature for 1 hour. Thereafter, the cell culture thus reacted was washed with SAB three times, followed by addition of Extra-avidin alkaline phosphatase (1:80000), reaction at room temperature for 30 min, and washing with SAB three times. 1 mg/mL of a disodium p-nitrophenyl solution in 100 mM NaCl and 5 mM MgCl was added to the cell culture which was then reacted for 20 to 60 min. Thereafter, 3N NaOH was added to terminate the reaction, and an amount of hyaluronic acid was measured at 405 nm."}, "corneal keratocytes [2]": {"system": "corneal keratocytes", "experiment": "Production of glycosaminoglycan in corneal keratocytes (Biocolor assay kit)", "assay_type": "cell-based", "conditions": "uridine 0 μM to 50 μM, 48 hours, effect from 1 μM, concentration-dependent, FIG. 2", "description": "Corneal keratocytes were stimulated for 48 hours by treatment of the cells with uridine (0 μM to 50 μM). The cell culture was collected, and an amount of glycosaminoglycan was measured at 550 nm using a Biocolor assay kit."}, "corneal keratocytes [3]": {"system": "corneal keratocytes", "experiment": "Production of nitric oxide (NO) in H2O2-stimulated corneal keratocytes (Griess reagent)", "assay_type": "cell-based", "conditions": "100 μM H2O2, then uridine 0 μM to 100 μM, 48 hours, effect up to 50 μM, concentration-dependent, FIG. 3"}, "corneal keratocytes [4]": {"system": "corneal keratocytes", "experiment": "Proliferation of corneal keratocytes (CCK-8)", "assay_type": "cell-based", "conditions": "uridine 0 μM to 10 μM, 48 hours; effect from 0.1 μM or higher; FIG. 4", "description": "Corneal keratocytes were incubated in a 96-well plate and stimulated with uridine (0 μM to 10 μM) for 48 hours. Cell count was carried out at 450 nm using a Cell counting kit-8 (CCK-8)."}, "ocular epithelial cells [5]": {"system": "ocular epithelial cells", "experiment": "Production of glycosaminoglycan in corneal epithelial cells (Biocolor assay kit)", "assay_type": "cell-based", "conditions": "uridine 0 μM to 50 μM, 48 hours, concentration-dependent, FIG. 5", "description": "Ocular epithelial cells were stimulated for 48 hours by treatment with uridine (0 μM to 50 μM). The cell culture was collected, and an amount of glycosaminoglycan was measured at 550 nm using a Biocolor assay kit."}, "ocular epithelial cells [6]": {"system": "ocular epithelial cells", "experiment": "Production of nitric oxide (NO) in H2O2-stimulated corneal epithelial cells (Griess reagent)", "assay_type": "cell-based", "conditions": "100 μM H2O2, then uridine 0 μM to 100 μM, 48 hours, concentration-dependent, FIG. 6"}, "dry eye-induced rabbits": {"system": "dry eye-induced rabbits", "experiment": "Concanavalin A-induced dry eye in rabbits, eye drops, impression cytology", "assay_type": "in vivo, rabbit", "conditions": "uridine eye drops in phosphate-buffered saline (1% and 5%), compared to 0.1% hyaluronic acid positive control and PBS control; FIG. 7", "description": "Dry eye syndrome was induced by causing ocular inflammation via injection of concanavalin A into the lacrimal gland of rabbits (Journal of Ocular Pharmacology & Therapeutics 21(2), 139-148, 2005). Uridine was dissolved to a concentration of […] in a phosphate-buffered saline solution, respectively, and the resulting solutions were used as eye drops. A commercially available 0.1% hyaluronic acid preparation was used as a positive control group, and a phosphate-buffered saline solution was used as a control group. 1% and 5% uridine preparations, the hyaluronic acid preparation and the phosphate-buffered saline solution were respectively dropped into eyes of the dry eye-induced rabbits, and the impression cytology of ocular cells was performed to confirm alleviation of dry eye syndrome."}, "dry eye patients": {"system": "dry eye patients", "experiment": "Clinical test, oral uridine in dry eye patients (double blind, placebo)", "assay_type": "in vivo, human", "conditions": "oral uridine 100 mg/day, three times a day for 3 months, versus placebo", "description": "At initial point of treatment and two weeks, one month, two months and three months after initiation of treatment, changes in corneal symptoms and conditions and the presence/absence of adverse side effects were objectively evaluated by slit-lamp microscopic examination, measurement of intraocular pressure, ophthalmoscopic examination, Schirmer test, impression cytology and analysis photography of anterior eye segment. In addition, subjective questionnaires of individual patients were prepared, and changes in subjective symptoms of patients and the presence/absence of adverse side effects were observed."}}, "data": [{"smiles": "O=c1ccn([C@@H]2O[C@H](CO)[C@@H](O)[C@H]2O)c(=O)[nH]1", "note": "[uridine]", "values": [{"measurement": "production of hyaluronic acid", "setting": "corneal keratocytes [1]", "value": "promoted production of hyaluronic acid"}, {"measurement": "production of glycosaminoglycan", "setting": "corneal keratocytes [2]", "value": "promoted production of glycosaminoglycan"}, {"measurement": "production of nitric oxide (NO)", "setting": "corneal keratocytes [3]", "value": "inhibited production of nitric oxide (NO)"}, {"measurement": "proliferation of cells", "setting": "corneal keratocytes [4]", "value": "promoted proliferation of cells"}, {"measurement": "production of glycosaminoglycan", "setting": "ocular epithelial cells [5]", "value": "promoted production of glycosaminoglycan"}, {"measurement": "production of nitric oxide (NO)", "setting": "ocular epithelial cells [6]", "value": "inhibited production of nitric oxide (NO)"}, {"measurement": "restoration of epithelial cells in the impression cytology of ocular cells", "setting": "dry eye-induced rabbits", "value": "significant restoration of epithelial cells"}, {"measurement": "tear-secretion test (Schirmer test)", "setting": "dry eye patients; FIG. 8", "value": "significant difference"}, {"measurement": "corneal staining", "setting": "dry eye patients; FIG. 9", "value": "significant difference"}]}]}
